The record followed here is EP4650351A1, “INHIBITOR OF COMPLEMENT FACTOR B” (Nanjing Chia Tai Tianqing Pharmaceutical Co., Ltd., priority 2023, dated 2024).

Molecules are shown by their SMILES.

Tested on in one data set: not listed separately
Kind of data set: Pharmacokinetic study in mice. In kind it is in vivo. The following applies: mouse, 10 mg/kg; PO (10 mpk), male ICR (CD-1) mice, plasma. The procedure: Experimental Example 3: Pharmacokinetic study in mice
Purpose of the experiment: To investigate the plasma pharmacokinetics in male ICR (CD-1) mice after single intravenous administration and gavage administration of the compounds of the present disclosure.
Experimental animals: Male ICR (CD-1) mice, body weight 32-35 g; supplier: Vital River Laboratory Animal Technology Co., Ltd.
Experimental procedures: Intravenous Administration (IV); Oral Gavage (PO); the dose was 10 mg/kg (vehicle: water (containing 0.5% methylcellulose (w/v) and 0.5% Tween 80 (v/v)).
Sample collection: At each set time point, 40 µL of blood was collected from the orbital sinus of the experimental animals. Whole blood samples were placed in anticoagulant tubes containing EDTA-K2. The whole blood samples were centrifuged at 1500 g for 10 min to separate plasma. The upper-layer plasma samples were collected into sample tubes for LC-MS/MS analysis.
Data analysis: Plasma concentrations were processed using the non-compartmental model in WinNonlin™Version6.3 (Pharsight, Mountain View, CA) pharmacokinetic software. Pharmacokinetic parameters Cl, T1/2, Cmax, and AUC0-24 were calculated using the linear-log trapezoidal method, and the results were shown in the table below. Table 3. Results of the pharmacokinetic study
Turning to `[2H]C([2H])([2H])Oc1cc(C)c2[nH]ccc2c1O[C@H]1CCN(CCC(F)(F)F)C[C@@H]1c1ccc(C(=O)O)cc1` (single isomer, unassigned) [Example 17a-2], the Cmax – broadly, the highest concentration seen after dosing – was 679 ng/mL.

On to `[2H]C([2H])([2H])Oc1cc(C)c2[nH]ccc2c1O[C@@H]1CCN(CC(F)F)C[C@H]1c1ccc(C(=O)O)cc1` [Example 26, 4-((3R,4R)-1-(2,2-difluoroethyl)-4-((5-(methoxy-d3)-7-methyl-1H-indol-4-yl)oxy)piperidin-3-yl) benzoic acid], for which the highest level (Cmax) was 944 ng/mL.

As for `CCO[C@H]1CCN(Cc2c(OC)cc(C)c3[nH]ccc23)[C@H](c2ccc(C(=O)O)cc2)C1` [LNP023, reference compound], the highest level (Cmax) was 1160 ng/mL.

The same data set, now with this note: mouse, 10 mg/kg; PO (10 mpk), male ICR (CD-1) mice, plasma; read-out: AUC0-24.
For the compound `[2H]C([2H])([2H])Oc1cc(C)c2[nH]ccc2c1O[C@H]1CCN(CCC(F)(F)F)C[C@@H]1c1ccc(C(=O)O)cc1` (single isomer, unassigned) [Example 17a-2], the AUC(0-t) turned out to be 6480 ng·h/mL.

On to `[2H]C([2H])([2H])Oc1cc(C)c2[nH]ccc2c1O[C@@H]1CCN(CC(F)F)C[C@H]1c1ccc(C(=O)O)cc1` [Example 26, 4-((3R,4R)-1-(2,2-difluoroethyl)-4-((5-(methoxy-d3)-7-methyl-1H-indol-4-yl)oxy)piperidin-3-yl) benzoic acid], for which the AUC(0-t) is 4960 ng·h/mL.

In the case of `CCO[C@H]1CCN(Cc2c(OC)cc(C)c3[nH]ccc23)[C@H](c2ccc(C(=O)O)cc2)C1` [LNP023, reference compound], the AUC(0-t) worked out at 4110 ng·h/mL.

In a further data set the target is T1, human complement factor B (Homo sapiens, UniProt P00751).
T1 construct: purchased ComplementTech A135
T1 sequence (P00751 26-764): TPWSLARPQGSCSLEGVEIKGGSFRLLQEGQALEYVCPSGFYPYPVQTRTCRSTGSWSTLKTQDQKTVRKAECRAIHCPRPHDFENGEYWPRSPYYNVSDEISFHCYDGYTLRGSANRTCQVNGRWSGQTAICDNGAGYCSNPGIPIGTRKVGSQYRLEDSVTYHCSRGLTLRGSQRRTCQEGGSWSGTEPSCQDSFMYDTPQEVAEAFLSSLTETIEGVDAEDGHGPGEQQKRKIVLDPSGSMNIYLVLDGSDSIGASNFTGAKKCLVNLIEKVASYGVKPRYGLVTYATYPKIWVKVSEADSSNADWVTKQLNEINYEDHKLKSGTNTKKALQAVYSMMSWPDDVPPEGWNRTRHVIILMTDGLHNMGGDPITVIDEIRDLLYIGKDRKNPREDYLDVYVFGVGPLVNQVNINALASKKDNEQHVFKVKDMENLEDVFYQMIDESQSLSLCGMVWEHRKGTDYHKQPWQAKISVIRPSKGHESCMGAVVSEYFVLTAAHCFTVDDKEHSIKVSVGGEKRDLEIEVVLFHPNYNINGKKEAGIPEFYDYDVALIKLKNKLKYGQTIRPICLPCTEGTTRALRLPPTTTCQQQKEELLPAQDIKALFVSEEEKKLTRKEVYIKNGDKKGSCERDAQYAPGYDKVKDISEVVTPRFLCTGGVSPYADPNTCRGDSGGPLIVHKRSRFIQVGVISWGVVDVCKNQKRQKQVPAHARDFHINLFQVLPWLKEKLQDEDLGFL
Kind of data set: TR-FRET competitive binding assay of human complement factor B (Cy5-labeled probe). Conditions: inhibitory activity against complement factor B; biotin-labeled factor B 25 nM, Cy5 probe 75 nM, 4 °C. Background: In TR-FRET formats the signal depends on donor and acceptor labels being close together.
`COc1cc(C)c2[nH]ccc2c1SC1CCN(CC(F)F)CC1c1ccc(C(=O)O)cc1` (single isomer, unassigned) [Example 16-4]: the IC50 (in general, the concentration that gives 50% inhibition) worked out at 196 nM.

In turn, `Cc1cc(OC(F)F)c(OC2CCN(CCC(F)(F)F)CC2c2ccc(C(=O)O)cc2)c2cc[nH]c12` (single isomer, unassigned) [Example 25-2] registered a concentration for half-maximal inhibition (IC50) of 24 nM.

Compound `COc1cc(C)c2[nH]ccc2c1CN1CCN(C2COC2)CC1c1ccc(C(=O)O)cc1` (racemic) [Example 3, (±)-4-(1-((5-methoxy-7-methyl-1H-indol-4-yl)methyl)-4-(oxetan-3-yl)piperazin-2-yl)benzoic acid] showed an IC50 above 1000 nM.

Compound `CCOC1CCC(Sc2c(OC)cc(C)c3[nH]ccc23)C(c2ccc(C(=O)O)cc2)C1` (single isomer, unassigned) [Example 19b-4] yielded an IC50 of 178 nM.

Consider `COc1cc(C)c2[nH]ccc2c1O[C@H]1CCN(CC(F)F)C[C@@H]1c1ccc(C(=O)O)cc1` [Example 13a-1, 4-((3S,4S)-1-(2,2-difluoroethyl)-4-((5-methoxy-7-methyl-1H-indol-4-yl)oxy)piperidin-3-yl)benzoic acid], for which the IC50 turned out to be 982 nM.

For `CCOC1CCC(Sc2c(OC)cc(C)c3[nH]ccc23)C(c2ccc(C(=O)O)cc2)C1` (single isomer, unassigned) [Example 19a-2], the IC50 stood at 224 nM.

`COc1cc(C)c2[nH]ccc2c1CN1CCN(CC2CC2)CC1c1ccc(C(=O)O)cc1` (racemic) [Example 4, (±)4-(4-(cyclopropylmethyl)-1-((5-methoxy-7-methyl-1H-indol-4-yl)methyl)piperazin-2-yl)benzoic acid]: the IC50 is above 1000 nM.

The compound `Cc1cc(OC(F)F)c(O[C@@H]2CCN(CC(F)F)C[C@H]2c2ccc(C(=O)O)cc2)c2cc[nH]c12` [Example 29, 4-((3R,4R)-1-(2,2-difluoroethyl)-4-((5-(difluoromethoxy)-7-methyl-1H-indol-4-yl)oxy)piperidin-3-yl) benzoic acid] gave an IC50 of 31.2 nM.

Regarding `[2H]C([2H])([2H])Oc1cc(C)c2[nH]ccc2c1O[C@@H]1CCN(CC(F)F)C[C@H]1c1ccc(C(=O)O)cc1` [Example 26, 4-((3R,4R)-1-(2,2-difluoroethyl)-4-((5-(methoxy-d3)-7-methyl-1H-indol-4-yl)oxy)piperidin-3-yl) benzoic acid], the IC50 stood at 12.2 nM.

For `CCOC1CCC(Oc2c(OC)cc(C)c3[nH]ccc23)C(c2ccc(C(=O)O)cc2)C1` (single isomer, unassigned) [Example 20a-4], the IC50 turned out to be 12.2 nM.

Compound `COc1cc(C)c2[nH]ccc2c1CN1CCN(CC(F)(F)F)CC1c1ccc(C(=O)O)cc1` (racemic) [Example 11-2, (±)4-(1-((5-methoxy-7-methyl-1H-indol-4-yl)methyl)-4-(2,2,2-trifluoroethyl)piperazin-2-yl) benzoic acid] had an IC50 of 70.7 nM.

With `Cc1cc(OC(F)(F)F)c(O[C@@H]2CCN(CC(F)(F)F)C[C@H]2c2ccc(C(=O)O)cc2)c2cc[nH]c12` [Example 31, 4-((3R,4R)-4-((7-methyl-5-(trifluoromethoxy)-1H-indol-4-yl)oxy)-1-(2,2,2-trifluoroethyl)piperidin-3-yl)benzoic acid], the IC50 was found to be 427 nM.

The compound `COc1cc(C)c2[nH]ccc2c1CN1CCN(C2CC(C(F)(F)F)C2)CC1c1ccc(C(=O)O)cc1` (racemic) [Example 10-2, (±)4-(1-((5-methoxy-7-methyl-1H-indol-4-yl)methyl)-4-(3-(trifluoromethyl)cyclobutyl)piperazin-2-yl)benzoic acid] had an IC50 of 117 nM.

Consider `CCOC1CCC(Sc2c(OC)cc(C)c3[nH]ccc23)C(c2ccc(C(=O)O)cc2)C1` (single isomer, unassigned) [Example 19a-4], for which the IC50 was found to be 257 nM.

Take `COc1cc(C)c2[nH]ccc2c1CN1CCN(CCC(F)(F)F)CC1c1ccc(C(=O)O)cc1` (racemic) [Example 9, (±)4-(1-((5-methoxy-7-methyl-1H-indol-4-yl)methyl)-4-(3,3,3-trifluoropropyl)piperazin-2-yl) benzoic acid]: the IC50 is 28.2 nM.

For the compound `COc1cc(C)c2[nH]ccc2c1CN1CCN(CC(F)F)CC1c1ccc(C(=O)O)cc1` (racemic) [Example 6-1, (±)4-(4-(2,2-difluoroethyl)-1-((5-methoxy-7-methyl-1H-indol-4-yl)methyl)piperazin-2-yl)benzoic acid], the IC50 is above 1000 nM.

In turn, `Cc1cc(OC(F)(F)F)c(O[C@@H]2CCN(CC(F)F)C[C@H]2c2ccc(C(=O)O)cc2)c2cc[nH]c12` [Example 30, 4-((3R,4R)-1-(2,2-difluoroethyl)-4-((7-methyl-5-(trifluoromethoxy)-1H-indol-4-yl)oxy)piperidin-3-yl)benzoic acid] registered an IC50 of 72.2 nM.

On to `CCOC1CCC(Cc2c(OC)cc(C)c3[nH]ccc23)N(c2ccc(C(=O)O)cc2)C1` (single isomer, unassigned) [Example 32a-4, 4-(5-ethoxy-2-((5-methoxy-7-methyl-1H-indol-4-yl)methyl)piperidin-1-yl)benzoic acid], for which the IC50 was determined as 285 nM.

Regarding `COc1cc(C)c2[nH]ccc2c1O[C@@H]1CCN(CC(F)(F)F)C[C@H]1c1ccc(-c2n[nH]c(=O)o2)cc1` [Example 33, 5-(4-((3R,4R)-4-((5-methoxy-7-methyl-1H-indol-4-yl)oxy)-1-(2,2,2-trifluoroethyl)piperidin-3-yl)phenyl)-1,3,4-oxadiazol-2(3H)-one], the IC50 was 23.7 nM.

`Cc1cc(OC(F)F)c(O[C@@H]2CCN(CC(F)(F)F)C[C@H]2c2ccc(C(=O)O)cc2)c2cc[nH]c12` [Example 28, 4-((3R,4R)-4-((5-(difluoromethoxy)-7-methyl-1H-indol-4-yl)oxy)-1-(2,2,2-trifluoroethyl)piperidin-3-yl)benzoic acid] had an IC50 of 46 nM.

The compound `COc1cc(C)c2[nH]ccc2c1CN1CCN(CC2CC2(F)F)CC1c1ccc(C(=O)O)cc1` (racemic) [Example 5, (±)4-(4-((2,2-difluorocyclopropyl)methyl)-1-((5-methoxy-7-methyl-1H-indol-4-yl)methyl)piperazin-2-yl)benzoic acid] had an IC50 of 202 nM.

In the case of `CCOC1CCC(Cc2c(OC)cc(C)c3[nH]ccc23)N(c2ccc(C(=O)O)cc2)C1` (single isomer, unassigned) [Example 32a-2, 4-(5-ethoxy-2-((5-methoxy-7-methyl-1H-indol-4-yl)methyl)piperidin-1-yl)benzoic acid], the IC50 amounted to 601 nM.

`[2H]C([2H])([2H])Oc1cc(C)c2[nH]ccc2c1O[C@@H]1CCN(CC(F)(F)F)C[C@H]1c1ccc(C(=O)O)cc1` [Example 27, 4-((3R,4R)-4-((5-(methoxy-d3)-7-methyl-1H-indol-4-yl)oxy)-1-(2,2,2-trifluoroethyl)piperidin-3-yl) benzoic acid] showed an IC50 of 9.13 nM.

Another data set deals with alternative complement pathway in human serum. In words: Complement deposition assay of serum alternative pathway (Wieslab Complement system Alternative pathway kit). It is filed as biochemical. The following applies: human serum diluted 18-fold, 37 °C 60 minutes, absorbance 405 nm. On the procedure:
The Wieslab® Complement system Alternative pathway kit (WIESLAB® Complement system Alternative pathway AP330 RUO) was used to detect the inhibitory activity of the compounds on the alternative complement pathway in human serum. Human serum was diluted 18-fold with the kit diluent. The diluted serum was added to a 96-well plate at 130 µL/well. Using a compound titrator (Tecan, D300e), test compounds at corresponding concentrations were added. The test concentration of the compounds started at 10 µM, with 3-fold serial dilution for 6 concentration points, detected in single wells. The DMSO ratio was uniformly adjusted to 0.1% using DMSO in all drug-treated wells. In the positive control wells, 0.1% DMSO and 130 µL of diluted serum were added; in the negative control wells, 0.1% DMSO and 130 µL of the kit diluent were added. The mixtures were pre-incubated at room temperature for 15 min. The incubated mixtures were transferred to the 96-well plate provided by the kit at 100 µL per well, incubated at 37 °C for 60 minutes, and the liquid in the wells was discarded. 300 µL of the washing solution in the kit was added to each well. The wells were washed three times. 100 µL of the conjugated antibody Conjugate in the kit was added to each well, and it was incubated at room temperature for 30 minutes. The liquid in the wells was removed. 300 µL of the washing solution in the kit was added to each well and the wells were washed three times. 100 µL of the substrate solution was added to each well and incubated at room temperature for 30 minutes. […] Table 2. Results of complement deposition in serum alternative pathway
The compound `CCCN1CCN(Cc2c(OC)cc(C)c3[nH]ccc23)C(c2ccc(C(=O)O)cc2)C1` (racemic) [Example 1-2, (±)4-(1-((5-methoxy-7-methyl-1H-indol-4-yl)methyl)-4-propylpiperazin-2-yl)benzoic acid] showed an IC50 of 132 nM.

`COc1cc(C)c2[nH]ccc2c1O[C@H]1CCN(CCC(F)(F)F)C[C@@H]1c1ccc(C(=O)O)cc1` (single isomer, unassigned) [Example 15a-2] had an IC50 of 54.8 nM.

`CCOC1CCC(Oc2c(OC)cc(C)c3[nH]ccc23)C(c2ccc(C(=O)O)cc2)C1` (single isomer, unassigned) [Example 20a-4] returned an IC50 of 86.7 nM.

Take `COc1cc(C)c2[nH]ccc2c1CN1CCN(CC(F)F)CC1c1ccc(C(=O)O)cc1` (racemic) [Example 6-2, (±)4-(4-(2,2-difluoroethyl)-1-((5-methoxy-7-methyl-1H-indol-4-yl)methyl)piperazin-2-yl)benzoic acid]: the IC50 worked out at 215 nM.
